Measurements from ChEMBL document CHEMBL5370573, “Isolation of Hydrazide-alkenes with Different Amino Acid Origins from an Azoxy-alkene-Producing Mutant of Streptomyces rochei 7434AN4” (J Nat Prod, 2023).
Values after ≈ are worked out from the molar mass of the structure shown.

What was measured:
[1] = Inhibition of quorum sensing system in Chromobacterium violaceum CV026 assessed as reduction in violacein production at 1 mg/ml measured after 24 hrs relative to control
[2] = Inhibition of quorum sensing system in Chromobacterium violaceum CV026 assessed as reduction in violacein production measured after 24 hrs

| inhibition [1] [%] | IC50 [2] [µg/mL] | Compound |
| --- | --- | --- |
| 40 | – | CCCC/C=C\NN(C(C)=O)C(=O)C(C)C |
| 40 | – | CCCC/C=C\NN(C(C)=O)C(=O)C(C)CC (stereo not drawn) |
| – | 750 (≈ 3.47 mM) | CCCC/C=C\[N+]([O-])=N\[C@H](C)[C@H](O)CO |
